Read-outs that look alike come from different tables or passages of the source.

The target of test [1] is Focal Adhesion Kinase (FAK) (Homo sapiens, UniProt Q05397). Put plainly: FAK assay system (Focal Adhesion Kinase inhibition). Format: biochemical. The conditions noted are these: read-out: FAK IC50.
In test [2] the test system is Mouse mammary carcinoma 4T1 cells. Briefly: Anchorage-independent tumor cell growth assay. The format is cell-based. The procedure: Cells are cultured for 2 h and inhibitors are added at various concentrations in a final concentration of 0.1% DMSO. After 48 h, cell growth is assayed with the cell counting kit-8 (Wako Pure Chemical), which uses a water soluble tetrazolium salt WST8. Twenty μL of the reagent is added into each well and cells are further cultured for 2 h. The optical density is measured at 450 nm.

A further test has as its target FAK (Mus musculus, UniProt P34152). Briefly: Phos IC50 (phosphorylation). Format: cell-based.

Focal Adhesion Kinase (FAK), sequence (Q05397 384-706): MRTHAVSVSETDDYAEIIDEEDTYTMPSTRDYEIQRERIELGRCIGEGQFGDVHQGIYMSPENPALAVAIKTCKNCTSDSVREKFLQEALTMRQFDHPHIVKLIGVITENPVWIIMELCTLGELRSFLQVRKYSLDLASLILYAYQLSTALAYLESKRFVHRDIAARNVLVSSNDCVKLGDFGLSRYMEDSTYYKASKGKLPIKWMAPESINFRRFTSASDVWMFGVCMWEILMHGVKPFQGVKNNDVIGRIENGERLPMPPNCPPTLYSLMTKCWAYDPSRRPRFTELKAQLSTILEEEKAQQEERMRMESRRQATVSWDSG
FAK, sequence (P34152 2-1052): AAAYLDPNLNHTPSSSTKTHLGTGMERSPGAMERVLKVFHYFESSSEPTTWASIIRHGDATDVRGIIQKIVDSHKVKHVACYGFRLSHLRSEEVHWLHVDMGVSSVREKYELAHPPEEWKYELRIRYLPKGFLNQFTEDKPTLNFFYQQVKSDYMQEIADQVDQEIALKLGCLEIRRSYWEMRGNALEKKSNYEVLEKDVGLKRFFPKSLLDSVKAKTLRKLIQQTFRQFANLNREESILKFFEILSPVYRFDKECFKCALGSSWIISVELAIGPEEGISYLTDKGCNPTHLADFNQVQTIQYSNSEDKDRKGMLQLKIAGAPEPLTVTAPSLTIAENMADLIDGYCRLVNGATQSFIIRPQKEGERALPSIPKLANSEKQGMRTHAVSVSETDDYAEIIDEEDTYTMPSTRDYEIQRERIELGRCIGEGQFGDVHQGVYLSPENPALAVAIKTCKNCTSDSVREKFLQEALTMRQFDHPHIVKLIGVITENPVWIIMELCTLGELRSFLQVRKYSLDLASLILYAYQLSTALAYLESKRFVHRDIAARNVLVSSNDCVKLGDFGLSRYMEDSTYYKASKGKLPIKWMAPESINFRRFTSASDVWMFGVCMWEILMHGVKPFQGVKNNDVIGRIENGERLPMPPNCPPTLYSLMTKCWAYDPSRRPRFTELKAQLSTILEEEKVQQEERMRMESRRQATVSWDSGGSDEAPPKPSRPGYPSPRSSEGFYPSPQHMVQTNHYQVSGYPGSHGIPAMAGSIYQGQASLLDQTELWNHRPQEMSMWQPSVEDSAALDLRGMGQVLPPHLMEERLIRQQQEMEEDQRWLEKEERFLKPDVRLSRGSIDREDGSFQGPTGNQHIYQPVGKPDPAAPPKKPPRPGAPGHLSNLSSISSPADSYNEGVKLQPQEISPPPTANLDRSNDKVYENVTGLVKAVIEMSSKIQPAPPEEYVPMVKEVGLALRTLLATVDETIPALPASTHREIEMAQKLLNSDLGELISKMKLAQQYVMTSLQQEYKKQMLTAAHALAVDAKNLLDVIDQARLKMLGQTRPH

In the case of `CNS(=O)(=O)c1ccccc1Nc1nc(Nc2cc(F)ccc2F)ncc1Br` [Example 3-77], the IC50 was 65 nM in test [1]; 3000 nM in test [2] (Mus musculus, 4T1); above 10000 nM against FAK.
The like results for `CC(C)NS(=O)(=O)c1ccccc1Nc1nc(Nc2ccc(OCCN3CCOCC3)cc2F)ncc1Cl` [Example 19-26] were, in that order, 6.1 nM, 300 nM and 100 nM.
For `CNS(=O)(=O)c1ccccc1Nc1nc(Nc2cc(OCCN3CCN(C)CC3)ccc2OC)ncc1Cl` [Example 20-22] the same measures were 8 nM, 190 nM and above 10000 nM.
For `COc1cc(N2CCOCC2)ccc1Nc1ncc(Cl)c(Nc2ccccc2S(=O)(=O)C2CCCCC2)n1` [Example 34-2] the same measures were 11 nM, 1170 nM and 80 nM.
For the compound `COc1cc(N2CCC[C@H]2CN2CCCC2)ccc1Nc1ncc(Cl)c(Nc2ccccc2S(=O)(=O)NC(C)C)n1` [Example 19-16], the IC50 worked out at 2.3 nM in test [1]; 1100 nM in test [2] (Mus musculus, 4T1); 700 nM against FAK.
For `CNS(=O)(=O)c1ccccc1Nc1nc(Nc2cc(Cl)ccc2OC)ncc1Br` [Example 3-52] the same measures were 29 nM, 2000 nM and 420 nM.
For the compound `CCCS(=O)(=O)c1ccccc1Nc1nc(Nc2ccc(OCCN3CCCC3=O)cc2OC)ncc1Cl` [Example 26-18], the results for the IC50 (in test [1]; in test [2]; against FAK) were 1.3 nM, 1170 nM and 6000 nM, respectively.
As to `CNc1ccccc1Nc1ncc(Br)c(Nc2ccccc2S(=O)(=O)NC)n1` [Example 3-8], the IC50 was 74 nM in test [1]; 6000 nM in test [2] (Mus musculus, 4T1); 300 nM on FAK.
For `COc1cc(N2CCOCC2)ccc1Nc1ncc(Cl)c(Nc2ccccc2S(=O)(=O)CCC(C)C)n1` [Example 34-4] the same measures were 13 nM, 1220 nM and above 10000 nM.
The like results for `CNS(=O)(=O)c1ccccc1Nc1nc(Nc2cccc3c2ccn3CCCN2CCN(C)CC2)ncc1Cl` [Example 20-9] were, in that order, 2 nM, 10 nM and 300 nM.
For `CNS(=O)(=O)c1ccccc1Nc1nc(Nc2cc(C(=O)N3CCNCC3)ccc2C)ncc1Br` [Example 3-24] the same measures were 64 nM, 5000 nM and 3500 nM.
Regarding `CNS(=O)(=O)c1ccccc1Nc1nc(Nc2ccc(N(CCOC)CCOC)cc2OC)ncc1Br` [Example 3-42], the half-maximal inhibitory concentration (IC50) came to 29 nM in test [1]; 300 nM in test [2] (Mus musculus, 4T1); 350 nM against FAK.
For `CNS(=O)(=O)c1ccccc1Nc1nc(Nc2ccc(N3CCC(C#N)CC3)cc2OC)ncc1Br` [Example 3-40] the same measures were 9 nM, 900 nM and above 10000 nM.
Take `CCCS(=O)(=O)c1ccccc1Nc1nc(Nc2ccc(N3CCN(C(=O)C(C)C)CC3)cc2OC)ncc1Cl` [Example 26-9]: the IC50 in test [1] turned out to be 2.3 nM; in test [2] (Mus musculus, 4T1), 220 nM; on FAK, 40 nM.
The like results for `COc1cc(F)ccc1Nc1ncc(Cl)c(Nc2ccccc2S(=O)(=O)N2CCOCC2)n1` [Example 16B] were, in that order, 11 nM, 7000 nM and 3000 nM.
Regarding `CCC(CC)S(=O)(=O)c1ccccc1Nc1nc(Nc2ccc(N3CCN(C(C)=O)CC3)cc2OC)ncc1Cl` [Example 29-3], the IC50 was determined as 5.6 nM in test [1]; 990 nM in test [2] (Mus musculus, 4T1); 100 nM at FAK.
As for `CNC(=O)c1cc(N2CCN(C)CC2)ccc1Nc1nc(Nc2cccc3c2ccn3C)ncc1Cl` [Example 35-2], the IC50 was determined as 6.1 nM in test [1]; 230 nM in test [2] (Mus musculus, 4T1); 700 nM on FAK.
The like results for `COc1cc(N2CCC(N3CCCCC3)CC2)ccc1Nc1ncc(Cl)c(Nc2ccccc2S(=O)(=O)NC(C)C)n1` [Example 19-27] were, in that order, 1.5 nM, 400 nM and 300 nM.
For `COc1cc(NCC(C)(C)CO)ccc1Nc1ncc(Cl)c(Nc2ccccc2S(=O)(=O)NC(C)C)n1` [Example 19-22] the same measures were 3.4 nM, 510 nM and 120 nM.
Turning to `CCCS(=O)(=O)c1ccccc1Nc1nc(Nc2ccc(C(=O)N3CCN(C(C)=O)CC3)cc2OC)ncc1Cl` [Example 26-19], the IC50 in test [1] came out at 9.2 nM; in test [2] (Mus musculus, 4T1) it was 790 nM; at FAK, 430 nM.
As to `CNC(=O)c1c(C)cccc1Nc1nc(Nc2ccc(OC3CCN(C)CC3)cc2OC)ncc1Cl` [Example 10-1], the IC50 was 39 nM in test [1]; 440 nM in test [2] (Mus musculus, 4T1); 1000 nM on FAK.
`CNC(=O)c1ccccc1Nc1nc(Nc2cccc3c2ccn3C)ncc1Cl` [Example 7-28]: the IC50 in test [1] amounted to 34 nM; in test [2] (Mus musculus, 4T1), 150 nM; against FAK, 1000 nM.
Turning to `CCCS(=O)(=O)c1cc(N2CCN(C)CC2)ccc1Nc1nc(Nc2ccc(F)cc2OC)ncc1Cl` [Example 34-8], the IC50 in test [1] is 8.7 nM; in test [2] (Mus musculus, 4T1), 1900 nM; on FAK it was above 10000 nM.
For the compound `CCC(C)NS(=O)(=O)c1ccccc1Nc1nc(Nc2ccc(F)cc2OC)ncc1Cl` (stereo not drawn) [Example 21-2], the IC50 was 8.5 nM in test [1]; above 10000 nM in test [2] (Mus musculus, 4T1); 330 nM at FAK.
`CNC(=O)c1ccccc1Nc1nc(Nc2cccc3[nH]ccc23)ncc1Cl` [Example 7-27]: the IC50 in test [1] amounted to 21 nM; in test [2] (Mus musculus, 4T1) it was 220 nM; at FAK, 500 nM.
For `CNS(=O)(=O)c1ccccc1Nc1nc(Nc2cc(-c3ccccn3)ccc2OC)ncc1Br` [Example 3-67] the same measures were 6 nM, 390 nM and 380 nM.
`CNS(=O)(=O)c1ccccc1Nc1nc(Nc2cc(C(=O)N3CCOCC3)ccc2C)ncc1Br` [Example 3-22]: the half-inhibitory concentration (IC50) is 120 nM in test [1]; 2000 nM in test [2] (Mus musculus, 4T1); 900 nM against FAK.
For `COc1cc(N2CCN3CCOC[C@H]3C2)ccc1Nc1ncc(Cl)c(Nc2ccccc2S(=O)(=O)NC(C)C)n1` [Example 19-31] the same measures were 1.8 nM, 380 nM and 400 nM.
For the compound `CNS(=O)(=O)c1ccccc1Nc1nc(Nc2ccc(N3CCCC(C(N)=O)C3)cc2OC)ncc1Cl` (stereo not drawn) [Example 20-15], the figures for the IC50 (in test [1]; in test [2]; against FAK) were 14 nM, 970 nM and 400 nM, respectively.
`COc1cc(OCCN2CCN(C)CC2)ccc1Nc1ncc(Cl)c(Nc2ccccc2S(=O)(=O)NC(C)C)n1` [Example 19-30]: the IC50 was below 1 nM in test [1]; 100 nM in test [2] (Mus musculus, 4T1); 60 nM at FAK.
On to `CNS(=O)(=O)c1ccccc1Nc1nc(Nc2cccc3c2CCCC3)ncc1Br` [Example 3-31], for which the half-maximal inhibitory concentration (IC50) worked out at 13 nM in test [1]; 5000 nM in test [2] (Mus musculus, 4T1); 1100 nM against FAK.
With `CNC(=O)c1cc(F)ccc1Nc1nc(Nc2ccc(N3CCOCC3)cc2OC)ncc1Cl` [Example 11-1], the IC50 in test [1] came to 9 nM; in test [2] (Mus musculus, 4T1) it was 850 nM; against FAK, 700 nM.
Take `CNS(=O)(=O)c1ccccc1Nc1nc(Nc2ccccc2OC)ncc1Br` [Example 3-6]: the IC50 in test [1] was found to be 13 nM; in test [2] (Mus musculus, 4T1), 2000 nM; against FAK it was 110 nM.
Take `CCS(=O)(=O)c1ccccc1Nc1nc(Nc2ccc(-n3cncn3)cc2OC)ncc1Cl` [Example 27-3]: the IC50 is 6.3 nM in test [1]; 560 nM in test [2] (Mus musculus, 4T1); above 10000 nM against FAK.
Turning to `COc1ccc(F)cc1Nc1ncc(Cl)c(Nc2ccccc2S(=O)(=O)NCC(C)C)n1` [Example 22-1], the IC50 was 43 nM in test [1]; above 10000 nM in test [2] (Mus musculus, 4T1); above 10000 nM on FAK.
On to `CCC(C)NS(=O)(=O)c1ccccc1Nc1nc(Nc2ccc(OC3CCN(C)CC3)cc2OC)ncc1Cl` (stereo not drawn) [Example 21-3], for which the IC50 in test [1] was 1.7 nM; in test [2] (Mus musculus, 4T1), 300 nM; on FAK, 300 nM.
On to `CNS(=O)(=O)c1ccccc1Nc1nc(Nc2cc(OC3CCN(C(C)=O)CC3)ccc2OC)ncc1Br` [Example 3-75], for which the IC50 in test [1] was determined as 72 nM; in test [2] (Mus musculus, 4T1), 1300 nM; against FAK it was 500 nM.
Turning to `CNS(=O)(=O)c1ccccc1Nc1nc(Nc2ccc(N3CCC(NC(C)=O)C3)cc2OC)ncc1Cl` (stereo not drawn) [Example 20-5], the IC50 in test [1] was determined as 6.8 nM; in test [2] (Mus musculus, 4T1), 1460 nM; at FAK, 870 nM.
The like results for `CCNC(=O)c1ccccc1Nc1nc(Nc2cc(N3CCC(N4CCCCC4)CC3)ccc2OC)ncc1Cl` [Example 9-7] were, in that order, 17 nM, 260 nM and above 10000 nM.
For `COc1cc(N2CCN(C)C(=O)C2)ccc1Nc1ncc(Cl)c(Nc2ccccc2S(=O)(=O)C(C)C)n1` [Example 28-23], the IC50 worked out at 5.9 nM in test [1]; 280 nM in test [2] (Mus musculus, 4T1); 500 nM on FAK.
In the case of `CCCS(=O)(=O)c1ccccc1Nc1nc(Nc2ccc(N3CCC(CO)CC3)cc2OC)ncc1Cl` [Example 26-27], the IC50 came to 4.8 nM in test [1], 1490 nM in test [2] and 600 nM at FAK.
On to `CNS(=O)(=O)c1ccccc1Nc1nc(Nc2cccc(OC)c2OC)ncc1Br` [Example 3-14], for which the IC50 was 54 nM in test [1]; 5000 nM in test [2] (Mus musculus, 4T1); 400 nM against FAK.
For `COc1cc(NC(C)(C)CO)ccc1Nc1ncc(Cl)c(Nc2ccccc2S(=O)(=O)NC(C)C)n1` [Example 19-23] the same measures were 6.4 nM, 710 nM and 700 nM.
For `CNS(=O)(=O)c1ccccc1Nc1nc(Nc2cc(-c3cccc(OC)c3)ccc2C)ncc1Br` [Example 3-28] the same measures were 43 nM, 700 nM and 710 nM.

The IC50 is the concentration needed to halve the response being measured.

(Values after patent US7893074B2, “2, 4-pyrimidinediamines useful in the treatment of neoplastic diseases, inflammatory and immune system disorders” (Novartis AG, priority 2003, dated 2011).)
